Where two headings read alike, the source gives them in different places.
How the values were obtained:
Test in all cases: pNPG enzyme inhibition assay, % inhibition at […]; also affinity ultrafiltration LC-MS (PAR […])
Format in all cases: biochemical
Settings in all cases: read-out: Inhibitory (%)
α-Glucosidase [1] = biological target: T1, α-Glucosidase (Saccharomyces cerevisiae, UniProt P53341)
T1 construct: gene MAL12

α-Glucosidase [2] = biological target: T1, α-Glucosidase; remark: listed apart in the source
α-Glucosidase [3] = biological target: T1, α-Glucosidase; remark: listed apart in the source

T1 sequence (P53341 whole entry): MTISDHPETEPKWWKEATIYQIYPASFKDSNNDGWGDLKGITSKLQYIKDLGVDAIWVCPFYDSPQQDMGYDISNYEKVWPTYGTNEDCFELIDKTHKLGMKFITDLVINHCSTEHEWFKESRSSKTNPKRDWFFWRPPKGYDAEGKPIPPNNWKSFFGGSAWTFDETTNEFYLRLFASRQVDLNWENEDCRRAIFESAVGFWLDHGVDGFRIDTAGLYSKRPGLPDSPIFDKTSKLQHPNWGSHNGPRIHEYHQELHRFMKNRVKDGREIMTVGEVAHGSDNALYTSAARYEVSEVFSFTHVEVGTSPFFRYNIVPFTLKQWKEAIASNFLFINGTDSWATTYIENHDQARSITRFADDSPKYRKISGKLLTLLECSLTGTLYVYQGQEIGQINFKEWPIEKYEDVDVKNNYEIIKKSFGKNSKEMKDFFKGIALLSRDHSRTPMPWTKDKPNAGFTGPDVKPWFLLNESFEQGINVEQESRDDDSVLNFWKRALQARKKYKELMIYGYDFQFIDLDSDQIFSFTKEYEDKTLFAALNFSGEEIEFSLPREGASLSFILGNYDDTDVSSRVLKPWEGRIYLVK

CC1(C)CC[C@]2(C(=O)O[C@@H]3O[C@H](CO)[C@@H](O)[C@H](O)[C@H]3O)CC[C@]3(C)C(=CC[C@@H]4[C@@]5(C)CC[C@H](O[C@@H]6O[C@H](C(=O)O)[C@@H](O)[C@H](O)[C@H]6O[C@@H]6O[C@H](CO)[C@@H](O)[C@H](O)[C@H]6O)C(C)(C)[C@@H]5CC[C@]43C)[C@@H]2C1 [R8, ginsenoside Ro]
inhibition at 40000 µM (α-Glucosidase [1]): 20.2%

CC(C)=CCC[C@](C)(OC1O[C@H](COC2O[C@@H](CO)[C@H](O)[C@H]2OC2OC[C@@H](O)[C@H](O)[C@H]2O)[C@@H](O)[C@H](O)[C@H]1O)C1CC[C@]2(C)C1[C@H](O)CC1[C@@]3(C)CC[C@H](OC4O[C@H](CO)[C@@H](O)[C@H](O)[C@H]4OC4O[C@H](CO)[C@@H](O)[C@H](O)[C@H]4O)C(C)(C)C3CC[C@]12C (stereo partly drawn) [R11, ginsenoside Ra2]
inhibition at 40000 µM (α-Glucosidase [2]): 29.5%

C=C(CCC=C(C)C)[C@H]1CC[C@]2(C)C1[C@H](O)CC1[C@@]3(C)CC[C@H](O)C(C)(C)C3[C@@H](OC3O[C@H](CO)[C@@H](O)[C@H](O)[C@H]3OC3O[C@@H](C)[C@H](O)[C@@H](O)[C@H]3O)C[C@]12C (stereo partly drawn) [R3, ginsenoside Rg6]
inhibition at 40000 µM (α-Glucosidase [3]): 27.4%

— publication PMC10004417, “Screening of Potential α-Glucosidase Inhibitors from the Roots and Rhizomes of Panax Ginseng by Affinity Ultrafiltration Screening Coupled with UPLC-ESI-Orbitrap-MS Method” (Molecules, 2023)
